Results as given in patent US20100297020A1, “PHOSPHORYLATED AND PHOSPHONATED PYRONE ANALOGS FOR THERAPEUTIC TREATMENT” (Limerick Biopharma, Inc., priority 2008, published 2010).
Entries after “also recorded” stand apart in the source; their conditions may differ.

Columns and labels:
male C57BL/6 mice = test: Plasma and liver triglyceride in C57BL/6 mice; assay type: in vivo
Protocol: Experimental Design: This study is a 2-week study conducted with male C57BL/6 mice (24 animals, 3 treatment arms, 8 rats/arm) 9-week old at the start of compound treatment. The animals are maintained (starting at 8-week old) on a 12-hr light and 12-hr dark cycle, and provided with commercial rodent chow Purina 5001 and water ad libitum.
The stock solution of vehicle (HCO-60) is composed of 200 mg of HCO-60 per mL of 80% alcohol. Vehicle is prepared by diluting the HCO-60 stock solution 1:10 with saline. Compound 3 stock solutions are prepared in HCO-60 stock solution and diluted with saline or vehicle to the appropriate dose concentration.
Tail-vein-blood samples are collected from each rat 24 hour after the last treatment (day-14) for plasma triglyceride determination. Animals are sacrificed to obtain liver for triglyceride determination.

[1] = tested on: diet-induced obese mice (C57Bl/6, 60% high fat diet); test: Diet induced obese mice: IP-GTT and hyperinsulinemic euglycemic clamp; assay type: in vivo; settings: 10 mg/kg I.P. daily
Protocol: Twenty-three (23) week old C57Bl/6 mice are placed on 60% high fat diet (HFD). After 9 weeks of HFD, mice are injected daily with either vehicle (PBS/NaCO3) or fisetin-3-O-methylphosphonate (compound 3) at a dosage of 10 mg/kg delivered via I.P. injection. HFD is continued throughout the injection period. After 2 weeks (week 10 and 11) of injection, mice are tested for basal blood (non-fasted) glucose levels by tail blood withdrawal. After 3 weeks (week 12) of injection, IP glucose tolerance test (IP-GTT) is performed at a dose of 1 gm dextrose per kilogram body weight. After 4 weeks (week 13) of injection, cannulation surgery is performed on anesthetized mice. Mice are allowed to recover 6 days. After 6 days, hyperinsulinemic euglycemic clamp studies are performed on the mice. After 7 weeks (week 16) of injections, a second IP-GTT is performed on the mice. Three days after the second IP-GTT, mice are sacrificed and blood and tissue samples are collected for further analysis.

ZDF rats [2] = test: Oral glucose tolerance test (OGTT) in ZDF rats after the 4 week study; assay type: in vivo; settings: glucose 2 g/Kg PO
Protocol: Following the 4 week study described in Example 26 above, the animals were fasted for 12 hours and on day-29, pre-drug blood samples are collected and glucose level and insulin level are measured. The animals are treated intraperitoneally (i.p.) with the following compounds:
Thirty (30) minutes after the treatment, pre-glucose blood samples are collected and the animals are then dosed with glucose (2 g/Kg, PO). Tail vein blood samples are collected at 30, 60, 90 and 120 minutes. Glucose levela and insulin leveal are measured. FIG. 31 show the plasma glucose level measured during OGTT. […] FIG. 32 show the plasma insulin level measured during OGTT. Phosphonated pyrone analogs raise insulin output in response to OGTT.

[3] = tested on: BB19 cells, human BCECs (brain capillary endothelial cells); test: Tacrolimus uptake assay; assay type: cell-based; settings: Endothelial cell, 1 h, 0.1 μM test compound, 1 hour incubation, 3H-tacrolimus 34 nM, read-out: cell associated ^3H-tacrolimus uptake, % of control
Protocol: (§1) BB19 cells, human BCECs (brain capillary endothelial cells) immortalized with the E6E7 genes of human papilloma virus, were kindly provided from Jacques G. Prudhomme, Department of Biology, University of California, Riverside, U.S.A. The cells were cultured as monolayer culture in Amniomax™-C100 basal medium (catalog number 17001-157) with Amniomax™-C100 supplement (catalog number 12556-049) (Invitrogen, Basel, CH).
(§2) Cells were seeded onto culture surfaces precoated with 10 μg/cm^2 rat tail collagen type I (BD Bioscience, Allschwil, CH) at a density of approximately 50′000 cells/cm^2 and were cultured in an incubator at 37° C. with 5% CO2, 95% fresh air and saturated humidity. For uptake assays, cells were seeded on precoated 96-well plates. Assays were performed at confluency, after 6 days in culture.
(§3) BB19 cells were seeded 50′000 cells/cm^2 on 96-well plates (Falcon) and incubated under condition described above for 6 days. Before starting the assay, cells were washed 2 times with pre-warmed Dulbecco's MEM with Glutamax-I (catalog number 61965) (Invitrogen AG, Basel, CH), supplemented with 1% non essential amino acids, 1% sodium pyruvate, 50 μg/ml gentamycin (Invitrogen AG) (DMEM). Cells were then incubated for 15 min at 37° C. and 120 rpm in DMEM with or without the specified concentrations of test compounds under investigation. After this pre-incubation, cells were incubated in DMEM containing [propyl-3H]-dihydro-FK506 (3H-tacrolimus, 1 μCi/ml, 34 nM) and with or without the specified concentrations of test compounds for 1 hour at 37° C. and 120 rpm. During this 1-hour incubation period, influx and efflux of the substrate, ^3H-tacrolimus, occur. After the 1-hour incubation period, assay was terminated by placing the assay plate on ice and washing the cells twice with ice-cold DMEM. Determination of cell associated ^3H-tacrolimus was performed by addition of Insta Gel and scintillation liquid to trypsinized cells followed by analysis on a scintillation counter (Packard TriCarb2000, Can berra Packard S.A.). The results are expressed as: % of control=100×[^3H-tacrolimus conc. with test compound]/[^3H-tacrolimus conc. with vehicle]

[4] = tested on: BB19 cells, human BCECs (brain capillary endothelial cells); test: Cyclosporin uptake assay; assay type: cell-based; settings: 0.1 μM test compound; 1 hour incubation
Protocol: as §1, §2, §3
The cyclosporin uptake assay was performed similarly as described above for tacrolimus uptake assay except that ^3H-cyclosporin was used in place of ^3H-tacrolimus.

ZDF rats [5] = test: Pancreas histopathology, insulin staining and TUNEL in ZDF rats; assay type: in vivo; settings: following four weeks of daily treatment
Text: Pancreas samples from Example 26 are stored in 10% NBF and used in this study. All tissue samples were processed through graded alcohols, cleared in xylene and infiltrated and embedded into paraffin. For the pancreas four 4 micron sections were cut, one was stained with Hematoxylin and Eosin for histopathology, two were immunohistochemically stained with an antibody to insulin to determine beta cell mass and one was stained for apoptosis with the tunel technique.
The insulin staining procedure was performed as follows: Endogenous peroxidase activity was inhibited by incubation in 3% hydrogen peroxide. Non-specific staining was blocked with DAKO Protein Block Serum-Free (Dako, Carpinteria, Calif.). Insulin positive cells were immunohistochemically stained with a polyclonal guinea pig anti-swine insulin antibody at room temperature for 30 minutes (Dako, Carpinteria, Calif.). After incubation with primary antibody, the tissue sections were sequentially incubated with Envision+ HRP Rabbit (Dako, Carpinteria, Calif.). Staining was developed with Liquid DAB+ (Dako, Carpinteria, Calif.) and counterstained with hematoxylin.
Pancreas samples were stained for apoptosis as follows: 4 micron sections were cut and stained for TUNEL utilizing the following kit In Situ Cell Death Detection Kit, AP (Roche Applied Science, catalog 11 684 809 910).

male db/db mice = test: 4-week study in db/db mice; assay type: in vivo
Text: The animals are maintained (starting at 7-week old) on a 12-hr light and 12-hr dark cycle, and provided with commercial rodent chow, LabDiet® 5K52, and water ad libitum.

male ZDF rats = test: 4 week study in ZDF rats (compound 2, compound 3); assay type: in vivo
Text: Seven week old male ZDF rats are used for the study.
Experimental Design: This study is a 4 week study Using 32 7-week old male ZDF rats, divided into 4 treatment arms (8 rats/arm).

[6] = is known to be; cited from earlier work

O=c1c(OCP(=O)(O)O)c(-c2ccc(O)c(O)c2)oc2cc(O)ccc12 [Compound 3, Fisetin-3-O-methylphosphonic acid]
liver triglyceride (male C57BL/6 mice; 30 mg/kg daily i.p. for 13 days, compared to vehicle): significantly reduces liver triglyceride
plasma triglyceride (male C57BL/6 mice; daily i.p. for 13 days, 30 and 3 mg/kg): reduces plasma triglyceride
basal glucose [1]: reduces basal glucose
hepatic glucose output [1]: impacts hepatic glucose output; also recorded: reduces hepatic glucose output
insulin output in response to glucose challenge [1]: less insulin output is required
tissue glucose uptake during hyperinsulinemic euglycemic clamp [1]: enhances tissue glucose uptake
response to IP glucose challenge ([1]; IP-GTT 1 gm dextrose per kilogram): improves response to glucose challenge
plasma insulin level during OGTT (ZDF rats [2]): raises insulin output
plasma glucose level during OGTT (ZDF rats [2]; compound 2 100 mg/kg, compound 3 50 mg/kg i.p.): protect against hyperglycemia
activity at 0.1 µM [3]: 44%
cell associated ^3H-cyclosporin uptake, % of control [4]: 71 % of control
islet cell apoptosis (ZDF rats [5]; TUNEL): decreases in islet cell apoptosis
decrease in islet vacuolar degeneration (inhibition) (ZDF rats [5]): 43%
decrease in pancreatic inflammation (inhibition) (ZDF rats [5]): 35%
body weights (male db/db mice; 4 weeks of daily treatment): essentially identical that of vehicle treated animals
liver triglyceride at sacrifice (day-29) (male db/db mice; compound 3 10 mg/kg daily i.p.): significantly lower than vehicle treated mice
plasma cholesterol levels on Day-28 (male db/db mice; compound 3 10 mg/kg daily i.p.): significantly lower than vehicle or rosiglitazone treated mice
plasma triglyceride levels on Day-28 (male db/db mice; compound 3 10 mg/kg daily i.p.): significantly lower than vehicle or rosiglitazone treated mice
plasma glucose level on Day-28 (male db/db mice; daily i.p., compound 3 30 and 10 mg/kg, rosiglitazone 10 mg/kg): lower than vehicle treated control mice
plasma insulin levels (male ZDF rats; 4 weeks daily i.p., compared to vehicle treated animals): require lower insulin levels to maintain nomal glucose levels
plasma glucose levels (male ZDF rats; 4 weeks daily i.p., compound 2 100 mg/kg, compound 3 100 mg/kg day 4 and 5, 50 mg/kg day 6-28, rosiglitazone 6 mg/kg): maintains steady glucose levels
glycated hemoglobin levels (% HbA1c) at termination (male ZDF rats; compared to vehicle treated animals): lower glycated hemoglobin levels
triglycerides (male ZDF rats; day 14 and day 21, over vehicle controls): marked decreases in triglycerides

O=c1c(O)c(-c2ccc(O)c(O)c2)oc2cc(O)cc(O)c12 [quercetin aglycone, quercetin]
serum half-life [6]: 19 to 25 h
